Assay results taken from patent publication US20080234262A1 (Wyeth, priority 2007, published 2008).
Like-named read-outs stand apart in the source and are kept apart here.

Legend:
[1] = target: PI3K (Homo sapiens, UniProt P42336); test: Fluorescence polarization assay for PI3K; type: biochemical;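 note: PI3K kinase reaction on PIP2 with ATP, 30-60 min, product sensed by GST-GRP with red probe in fluorescence polarization (mP), controls without enzyme and at zero time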
[2] = tested on: prostate line LNCap; test: In vitro cell culture growth assay (MTS), LNCap; type: cell-based, human; settings: Homo sapiens, 72 h, LNCap cells, three days after drug treatment;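 note: viable cell density read by absorbance at 490 nm, growth expressed as percent of vehicle-treated cells on the same plate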
[3] = tested on: breast line MDA468; test: In vitro cell culture growth assay (MTS), MDA468; type: cell-based, human; settings: Homo sapiens, 72 h, MDA468 cells, three days after drug treatment
How it was run: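 Steps: plate cells; add inhibitors the next day; incubate 3 days; add MTS dye, which viable cells convert metabolically; measure absorbance at 490 nm; calculate percent of control growth relative to vehicle-treated cells in the same plate.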

Sequence of PI3K (P42336 whole entry): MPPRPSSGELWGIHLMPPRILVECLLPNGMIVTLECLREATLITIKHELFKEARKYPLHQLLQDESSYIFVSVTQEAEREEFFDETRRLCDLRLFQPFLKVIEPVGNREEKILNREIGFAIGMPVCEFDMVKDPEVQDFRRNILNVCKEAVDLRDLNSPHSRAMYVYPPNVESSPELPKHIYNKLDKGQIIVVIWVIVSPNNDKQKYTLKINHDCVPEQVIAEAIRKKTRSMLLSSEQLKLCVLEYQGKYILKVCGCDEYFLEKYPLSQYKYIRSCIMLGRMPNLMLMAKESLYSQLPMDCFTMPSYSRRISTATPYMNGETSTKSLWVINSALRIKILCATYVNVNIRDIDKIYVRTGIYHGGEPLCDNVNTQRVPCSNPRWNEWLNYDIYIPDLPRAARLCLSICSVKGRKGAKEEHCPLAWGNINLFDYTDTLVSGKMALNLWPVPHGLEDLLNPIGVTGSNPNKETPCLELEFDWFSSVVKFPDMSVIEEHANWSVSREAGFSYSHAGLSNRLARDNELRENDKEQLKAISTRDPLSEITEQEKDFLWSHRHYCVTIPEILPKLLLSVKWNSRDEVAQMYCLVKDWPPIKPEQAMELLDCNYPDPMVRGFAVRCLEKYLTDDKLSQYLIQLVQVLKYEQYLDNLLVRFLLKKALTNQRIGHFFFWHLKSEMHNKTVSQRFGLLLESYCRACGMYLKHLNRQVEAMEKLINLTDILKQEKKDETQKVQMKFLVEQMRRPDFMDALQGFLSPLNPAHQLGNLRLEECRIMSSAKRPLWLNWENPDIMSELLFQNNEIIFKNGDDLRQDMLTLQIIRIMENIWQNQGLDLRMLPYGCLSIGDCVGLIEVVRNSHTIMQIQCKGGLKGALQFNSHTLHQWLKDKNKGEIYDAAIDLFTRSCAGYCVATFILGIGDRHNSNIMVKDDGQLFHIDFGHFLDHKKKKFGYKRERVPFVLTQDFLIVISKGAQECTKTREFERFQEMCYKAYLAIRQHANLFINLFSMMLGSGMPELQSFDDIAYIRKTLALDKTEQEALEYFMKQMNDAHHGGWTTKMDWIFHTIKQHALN
Sequence of PI3K (P27986 whole entry partner): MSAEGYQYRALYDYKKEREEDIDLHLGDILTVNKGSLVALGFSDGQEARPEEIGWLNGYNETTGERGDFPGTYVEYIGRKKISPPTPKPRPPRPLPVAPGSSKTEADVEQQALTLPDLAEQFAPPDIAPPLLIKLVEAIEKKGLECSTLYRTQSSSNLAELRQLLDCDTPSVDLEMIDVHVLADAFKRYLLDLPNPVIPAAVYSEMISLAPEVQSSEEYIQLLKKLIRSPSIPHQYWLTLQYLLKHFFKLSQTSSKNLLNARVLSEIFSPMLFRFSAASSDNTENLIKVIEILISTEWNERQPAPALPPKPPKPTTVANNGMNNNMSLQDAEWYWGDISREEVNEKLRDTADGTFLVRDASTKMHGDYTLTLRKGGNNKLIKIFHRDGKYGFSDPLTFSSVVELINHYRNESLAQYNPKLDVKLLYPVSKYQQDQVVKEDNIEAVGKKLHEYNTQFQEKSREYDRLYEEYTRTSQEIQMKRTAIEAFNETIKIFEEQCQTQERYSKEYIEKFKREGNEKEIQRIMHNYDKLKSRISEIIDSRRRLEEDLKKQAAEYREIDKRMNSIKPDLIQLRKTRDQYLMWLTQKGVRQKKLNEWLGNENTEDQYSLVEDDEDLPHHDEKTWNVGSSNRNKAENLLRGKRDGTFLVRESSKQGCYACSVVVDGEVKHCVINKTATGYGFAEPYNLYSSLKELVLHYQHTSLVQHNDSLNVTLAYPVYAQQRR

SMILES	IC50 ([1]; PI3Kα, read-out: PI3Kα IC50) [nM]	IC50 ([2]; LNCaP) [nM]	IC50 [3] [nM]	IC50 ([1]; PI3Kα IC50, PI3Kα) [nM]	IC50 [2] [nM]
O=C(Nc1ccccc1)Nc1ccc(-c2nc(N3CCOCC3)c3cnn(C4CCN(CCCCO)CC4)c3n2)cc1 [Compound 748, 1-(4-{1-[1-(4-hydroxybutyl)piperidin-4-yl]-4-morpholin-4-yl-1H-pyrazolo[3,4-d]pyrimidin-6-yl}phenyl)-3-phenylurea]	53	80	390	–	–
Nc1ccc(-c2nc(N3CCOCC3)c3cnn(C4CCN(CCCCO)CC4)c3n2)cc1 [Compound 749, 4-{4-[6-(4-aminophenyl)-4-morpholin-4-yl-1H-pyrazolo[3,4-d]pyrimidin-1-yl]piperidin-1-yl}butan-1-ol]	4230	12000	30000	–	–
CCOC(=O)N1CCC(n2ncc3c(N4CCOCC4)nc(-c4ccc(NC(=O)NC)cc4)nc32)CC1 [Compound 750, ethyl 4-(6-{4-[(methylcarbamoyl)amino]phenyl}-4-morpholin-4-yl-1H-pyrazolo[3,4-d]pyrimidin-1-yl)piperidine-1-carboxylate]	221	33	80	–	–
CCCOC(=O)N1CCC(n2ncc3c(N4CCOCC4)nc(-c4ccc(NC(=O)NC)cc4)nc32)CC1 [Compound 751, propyl 4-(6-{4-[(methylcarbamoyl)amino]phenyl}-4-morpholin-4-yl-1H-pyrazolo[3,4-d]pyrimidin-1-yl)piperidine-1-carboxylate]	106	34	110	–	–
C=COC(=O)N1CCC(n2ncc3c(N4CCOCC4)nc(-c4ccc(NC(=O)NC)cc4)nc32)CC1 [Compound 753, vinyl 4-(6-{4-[(methylcarbamoyl)amino]phenyl}-4-morpholin-4-yl-1H-pyrazolo[3,4-d]pyrimidin-1-yl)piperidine-1-carboxylate]	100	47	110	–	–
CNC(=O)Nc1ccc(-c2nc(N3CCOCC3)c3cnn(C4CCN(C(=O)OCC(C)C)CC4)c3n2)cc1 [Compound 754, isobutyl 4-(6-{4-[(methylcarbamoyl)amino]phenyl}-4-morpholin-4-yl-1H-pyrazolo[3,4-d]pyrimidin-1-yl)piperidine-1-carboxylate]	72	130	270	–	–
CNC(=O)Nc1ccc(-c2nc(N3CCOCC3)c3cnn(C4CCN(C(=O)Oc5ccccc5)CC4)c3n2)cc1 [Compound 755, phenyl 4-(6-{4-[(methylcarbamoyl)amino]phenyl}-4-morpholin-4-yl-1H-pyrazolo[3,4-d]pyrimidin-1-yl)piperidine-1-carboxylate]	–	–	160	16	60
C/C=C/C(=O)N1CCC(n2ncc3c(N4CCOCC4)nc(-c4ccc(NC(=O)NC)cc4)nc32)CC1 [Compound 756, 1-[4-(1-{1-[(2E)-but-2-enoyl]piperidin-4-yl}-4-morpholin-4-yl-1H-pyrazolo[3,4-d]pyrimidin-6-yl)phenyl]-3-methylurea]	174	500	500	–	–
CNC(=O)Nc1ccc(-c2nc(N3CCOCC3)c3cnn(C4CCN(C(=O)CC(=O)OC)CC4)c3n2)cc1 [Compound 757, methyl 3-[4-(6-{4-[(methylcarbamoyl)amino]phenyl}-4-morpholin-4-yl-1H-pyrazolo[3,4-d]pyrimidin-1-yl)piperidin-1-yl]-3-oxopropanoate]	124	2000	1100	–	–
C=CC(=O)N1CCC(n2ncc3c(N4CCOCC4)nc(-c4ccc(NC(=O)NC)cc4)nc32)CC1 [Compound 758, 1-{4-[1-(1-acryloylpiperidin-4-yl)-4-morpholin-4-yl-1H-pyrazolo[3,4-d]pyrimidin-6-yl]phenyl}-3-methylurea]	98	370	300	–	–
CNC(=O)Nc1ccc(-c2nc(N3CCOCC3)c3cnn(C4CCN(S(C)(=O)=O)CC4)c3n2)cc1 [Compound 759, 1-methyl-3-(4-{1-[1-(methylsulfonyl)piperidin-4-yl]-4-morpholin-4-yl-1H-pyrazolo[3,4-d]pyrimidin-6-yl}phenyl)urea]	78	400	480	–	–
CNC(=O)Nc1ccc(-c2nc(N3CCOCC3)c3cnn(C4CCN(C(=S)NC)CC4)c3n2)cc1 [Compound 760, N-methyl-4-(6-{4-[(methylcarbamoyl)amino]phenyl}-4-morpholin-4-yl-1H-pyrazolo[3,4-d]pyrimidin-1-yl)piperidine-1-carbothioamide]	42	170	50	–	–
CNC(=O)Nc1ccc(-c2nc(N3CCOCC3)c3cnn(C4CCN(C(=O)SC)CC4)c3n2)cc1 [Compound 761, S-methyl 4-(6-{4-[(methylcarbamoyl)amino]phenyl}-4-morpholin-4-yl-1H-pyrazolo[3,4-d]pyrimidin-1-yl)piperidine-1-carbothioate]	72	50	120	–	–
CCSC(=O)N1CCC(n2ncc3c(N4CCOCC4)nc(-c4ccc(NC(=O)NC)cc4)nc32)CC1 [Compound 762, S-ethyl 4-(6-{4-[(methylcarbamoyl)amino]phenyl}-4-morpholin-4-yl-1H-pyrazolo[3,4-d]pyrimidin-1-yl)piperidine-1-carbothioate]	87	50	170	–	–
CNC(=O)Nc1ccc(-c2nc(N3CCOCC3)c3cnn(C4CCN(C(=O)C(F)(F)F)CC4)c3n2)cc1 [Compound 763, 1-methyl-3-(4-{4-morpholin-4-yl-1-[1-(trifluoroacetyl)piperidin-4-yl]-1H-pyrazolo[3,4-d]pyrimidin-6-yl}phenyl)urea]	154	270	500	–	–
CCNC(=O)Nc1ccc(-c2nc(N3CCOCC3)c3cnn(C4CCN(C(=O)OC(C)(C)C)CC4)c3n2)cc1 [Compound 764, tert-butyl 4-(6-{4-[(ethylcarbamoyl)amino]phenyl}-4-morpholin-4-yl-1H-pyrazolo[3,4-d]pyrimidin-1-yl)piperidine-1-carboxylate]	738	115	370	–	–
CC(C)(C)OC(=O)N1CCC(n2ncc3c(N4CCOCC4)nc(-c4ccc(NC(=O)NCCO)cc4)nc32)CC1 [Compound 766, tert-butyl 4-[6-(4-{[(2-hydroxyethyl)carbamoyl]amino}phenyl)-4-morpholin-4-yl-1H-pyrazolo[3,4-d]pyrimidin-1-yl]piperidine-1-carboxylate]	364	180	410	–	–
CC(C)(C)OC(=O)N1CCC(n2ncc3c(N4CCOCC4)nc(-c4ccc(NC(=O)Nc5ccccc5)cc4)nc32)CC1 [Compound 768, tert-butyl 4-(6-{4-[(anilinocarbonyl)amino]phenyl}-4-morpholin-4-yl-1H-pyrazolo[3,4-d]pyrimidin-1-yl)piperidine-1-carboxylate]	74	205	710	–	–
CC(C)(C)OC(=O)N1CCC(n2ncc3c(N4CCOCC4)nc(-c4ccc(NC(=O)Nc5ccccn5)cc4)nc32)CC1 [Compound 769, tert-butyl 4-(4-morpholin-4-yl-6-{4-[(pyridin-2-ylcarbamoyl)amino]phenyl}-1H-pyrazolo[3,4-d]pyrimidin-1-yl)piperidine-1-carboxylate]	2190	3500	7000	–	–
CC(C)(C)OC(=O)N1CCC(n2ncc3c(N4CCOCC4)nc(-c4ccc(NC(=O)Nc5cccnc5)cc4)nc32)CC1 [Compound 770, tert-butyl 4-(4-morpholin-4-yl-6-{4-[(pyridin-3-ylcarbamoyl)amino]phenyl}-1H-pyrazolo[3,4-d]pyrimidin-1-yl)piperidine-1-carboxylate]	56	105	260	–	–
CC(C)(C)OC(=O)N1CCC(n2ncc3c(N4CCOCC4)nc(-c4ccc(NC(=O)Nc5ccncc5)cc4)nc32)CC1 [Compound 771, tert-butyl 4-(4-morpholin-4-yl-6-{4-[(pyridin-4-ylcarbamoyl)amino]phenyl}-1H-pyrazolo[3,4-d]pyrimidin-1-yl)piperidine-1-carboxylate]	59	70	190	–	–
COC(=O)Nc1ccc(-c2nc(N3CCOCC3)c3cnn(C4CCN(C(=O)OC(C)(C)C)CC4)c3n2)cc1 [Compound 772, tert-butyl 4-(6-{4-[(methoxycarbonyl)amino]phenyl}-4-morpholin-4-yl-1H-pyrazolo[3,4-d]pyrimidin-1-yl)piperidine-1-carboxylate]	5030	1300	5500	–	–
CCNC(=O)Nc1ccc(-c2nc(N3CCOCC3)c3cnn(C4CCNCC4)c3n2)cc1 [Compound 773]	306	620	390	–	–
O=C(NCCF)Nc1ccc(-c2nc(N3CCOCC3)c3cnn(C4CCNCC4)c3n2)cc1 [Compound 774, 1-(2-fluoroethyl)-3-[4-(4-morpholin-4-yl-1-piperidin-4-yl-1H-pyrazolo[3,4-d]pyrimidin-6-yl)phenyl]urea]	436	2300	1050	–	–
O=C(NCCO)Nc1ccc(-c2nc(N3CCOCC3)c3cnn(C4CCNCC4)c3n2)cc1 [Compound 775, 1-(2-hydroxyethyl)-3-[4-(4-morpholin-4-yl-1-piperidin-4-yl-1H-pyrazolo[3,4-d]pyrimidin-6-yl)phenyl]urea]	170	26000	12000	–	–
O=C(Nc1ccc(-c2nc(N3CCOCC3)c3cnn(C4CCNCC4)c3n2)cc1)NC1CC1 [Compound 776, 1-cyclopropyl-3-[4-(4-morpholin-4-yl-1-piperidin-4-yl-1H-pyrazolo[3,4-d]pyrimidin-6-yl)phenyl]urea]	442	1100	1100	–	–
